The GI50 is the concentration at which growth is held to half of that of the control. Low readings indicate more potent growth inhibition, high ones less potent growth inhibition.

Molecules are shown by their SMILES. Bounds are passed on as bounds.

This assay deals with NCIH929.1 cells. Briefly: Cell viability assay (CellTiter-Glo 2.0, ATP quantification). To be noted: NCIH929.1 cell viability, CellTiter-Glo 2.0, 96 hr incubation, top concentration 1 μM. Format: cell-based. The procedure, abridged:
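Read-out is CellTiter-Glo 2.0 luminescence (ATP), after 96 h compound exposure at 37 °C, with a day-0 plate giving the CT0 baseline. Duplicate 10-point half-log titration from 1 μM applied to 750 cells/well in RPMI, 10% FBS, 0.05 mM 2-mercaptoethanol.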
Background: In ATP-based viability assays light output follows the ATP content of the culture.
On to `O=C1CCC(N2C(=O)c3cccc(NCc4cnn(C5CCN(C(=O)C6CCOCC6)CC5)c4)c3C2=O)C(=O)N1` (stereo not shown) [Compound 11, 2-(2,6-dioxopiperidin-3-yl)-4-(((1-(1-(tetrahydro-2H-pyran-4-carbonyl)piperidin-4-yl)-1H-pyrazol-4-yl)methyl)amino)isoindoline-1,3-dione], for which the GI50 is < 0.1 µM.

Turning to `O=C1CCC(N2C(=O)c3cccc(NCc4cnn(C5CCN(C(=O)Cc6ccc7c(c6Cl)OCCCO7)CC5)c4)c3C2=O)C(=O)N1` (stereo not shown) [Compound 124, 4-(((1-(1-(2-(6-chloro-3,4-dihydro-2H-benzo[b][1,4]dioxepin-7-yl)acetyl)piperidin-4-yl)-1H-pyrazol-4-yl)methyl)amino)-2-(2,6-dioxopiperidin-3-yl)isoindoline-1,3-dione], the GI50 was < 0.1 µM. The value for `CCc1ccc2c(CC(=O)N3CCC(n4cc(CNc5cccc6c5C(=O)N(C5CCC(=O)NC5=O)C6=O)cn4)CC3)coc2c1` (stereo not shown) [Compound 114, 2-(2,6-dioxoopiperidin-3-yl)-4-(((1-(1-(2-(6-ethylbenzofuran-3-yl)acetyl)piperidin-4-yl)-1H-pyrazol-4-yl)methyl)amino)isoindoline-1,3-dione] was < 0.1 µM; that for `CC1(CN2CCC(n3cc(CNc4cccc5c4C(=O)N(C4CCC(=O)NC4=O)C5=O)cn3)CC2)CCCC1` (stereo not shown) [Compound 138, 2-(2,6-dioxopiperidin-3-yl)-4-(((1-(1-((1-methylcyclopentyl)methyl)piperidin-4-yl)-1H-pyrazol-4-yl)methyl)amino)isoindoline-1,3-dione] was < 0.001 µM; that for `O=C1CCC(N2C(=O)c3cccc(NCc4cnn(C5CCN(C(=O)C67CC8CC(CC(C8)C6)C7)CC5)c4)c3C2=O)C(=O)N1` (stereo not shown) [Compound 44, 4-(((1-(1-(adamantane-1-carbonyl)piperidin-4-yl)-1H-pyrazol-4-yl)methyl)amino)-2-(2,6-dioxopiperidin-3-yl)isoindoline-1,3-dione] was < 0.001 µM.

As for `O=C1CCC(N2C(=O)c3cccc(NCc4cnn(C5CCN(CC6(C#CC7CC7)CCC6)CC5)c4)c3C2=O)C(=O)N1` (stereo not shown) [Compound 204, 4-({1-[1-(1-Cyclopropylethynyl-cyclobutylmethyl)-piperidin-4-yl]-1H-pyrazol-4-ylme-thyl}-amino)-2-(2,6-dioxo-piperidin-3-yl)-isoindole-1,3-dione], the GI50 was < 0.1 µM. With `CC(C)(N)C(=O)N1CCC(n2cc(CNc3cccc4c3C(=O)N(C3CCC(=O)NC3=O)C4=O)cn2)CC1` (stereo not shown) [Compound 50, 4-(((1-(1-(2-amino-2-methylopropanoyl)piperidin-4-yl)-1H-pyrazol-4-yl)methyl)amino)-2-(2,6-dioxopiperidin-3-yl)isoindoline-1,3-dione] the figure was < 0.1 µM.

`O=C1CCC(N2C(=O)c3cccc(NCc4cnn(C5CCN(C(=O)Cc6ccc(-c7ccc(F)cc7)cc6)CC5)c4)c3C2=O)C(=O)N1` (stereo not shown) [Compound 106, 2-(2,6-dioxopiperidin-3-yl)-4-(((1-(1-(2-(4′-fluoro-[1,1′-biphenyl]-4-yl)acetyl)piperidin-4-yl)-1H-pyrazol-4-yl)methyl)amino)isoindoline-1,3-dione]: the GI50 is < 0.1 µM. Regarding `CC(C)(C)CCC(=O)N1CCC(n2cc(CNc3cccc4c3C(=O)N(C3CCC(=O)NC3=O)C4=O)cn2)CC1` (stereo not shown) [Compound 8, 4-(((1-(1-(4,4-dimethylpentanoyl)piperidin-4-yl)-1H-pyrazol-4-yl)methyl)amino)-2-(2,6-dioxopiperidin-3-yl)isoindoline-1,3-dione], the GI50 is < 0.001 µM. Consider `O=C1CCC(N2C(=O)c3cccc(NCc4cnn(C5CCN(C(=O)OCC(Cl)(Cl)Cl)CC5)c4)c3C2=O)C(=O)N1` (stereo not shown) [Compound 148, 2,2,2-trichloroethyl 4-(4-(((2-(2,6-dioxopiperidin-3-yl)-1,3-dioxoisoindolin-4-yl)amino)methyl)-1H-pyrazol-1-yl)piperidine-1-carboxylate], for which the GI50 was < 0.1 µM. With `O=C1CCC(N2C(=O)c3cccc(NCc4cnn(C5CCN(C(=O)CC6CCOCC6)CC5)c4)c3C2=O)C(=O)N1` (stereo not shown) [Compound 28, 2-(2,6-dioxopiperidin-3-yl)-4-(((1-(1-(2-(tetrahydro-2H-pyrazin-4-yl)acetyl)piperidin-4-yl)-1H-pyrazol-4-yl)methyl)amino)isoindoline-1,3-dione] the figure was < 0.1 µM. With `O=C1CCC(N2C(=O)c3cccc(NCc4cnn(C5CCN(C(=O)C6(c7ccccc7)CC6)CC5)c4)c3C2=O)C(=O)N1` (stereo not shown) [Compound 72, 2-(2,6-dioxopiperidin-3-yl)-4-(((1-(1-(1-phenylcyclopropane-1-carbonyl)piperidin-4-yl)-1H-pyrazol-4-yl)methyl)amino)isoindoline-1,3-dione] the figure was < 0.1 µM; with `CC1(C(=O)N2CCC(n3cc(CNc4cccc5c4C(=O)N(C4CCC(=O)NC4=O)C5=O)cn3)CC2)CC1(Cl)Cl` (stereo in doubt) [Compound 183, 4-(((1-(1-((S)-2,2-Dichloro-1-methylcyclopropane-1-carbonyl)piperidin-4-yl)-1H-pyrazol-4-yl)methyl)amino)-2-(2,6-dioxopiperidin-3-yl)isoindoline-1,3-dione], < 0.001 µM. The value for `O=C1CCC(N2C(=O)c3cccc(NCc4cnn(CC5CCOCC5)c4)c3C2=O)C(=O)N1` (stereo not shown) [Compound 155, 2-(2,6-dioxo-3-piperidyl)-4-[[1-(tetrahydropyran-4-ylmethyl)pyrazol-4-yl]methylamino]isoindoline-1,3-dione] was < 0.1 µM. With `CC(C(=O)N1CCC(n2cc(CNc3cccc4c3C(=O)N(C3CCC(=O)NC3=O)C4=O)cn2)CC1)(C(F)(F)F)C(F)(F)F` (stereo not shown) [Compound 56, 2-(2,6-dioxopiperidin-3-yl)-4-(((1-(1-(3,3,3-trifluoro-2-methyl-2-(trifluoromethyl)propanoyl)piperidin-4-yl)-1H-pyrazol-4-yl)methyl)amino)isoindoline-1,3-dione], the GI50 was < 0.1 µM. With `CC1CC(n2cc(CNc3cccc4c3C(=O)N(C3CCC(=O)NC3=O)C4=O)cn2)CC(C)N1C(=O)OC(C)(C)C` (stereo not shown) [Compound 168, tert-Butyl 4-(4-(((2-(2,6-dioxopiperidin-3-yl)-1,3-dioxoisoindolin-4-yl)amino)methyl)-1H-pyrazol-1-yl)-2,6-dimethylpiperidine-1-carboxylate] the figure was < 0.1 µM; with `O=C1CCC(N2C(=O)c3cccc(NCc4cnn(C5CCN(C(=O)Cc6coc(-c7ccccc7)n6)CC5)c4)c3C2=O)C(=O)N1` (stereo not shown) [Compound 116, 2-(2,6-dioxopiperidin-3-yl)-4-(((1-(1-(2-(2-phenyloxazol-4-yl)acetyl)piperidin-4-yl)-1H-pyrazol-4-yl)methyl)amino)isoindoline-1,3-dione], < 0.1 µM. With `CC(C)OCC(=O)N1CCC(n2cc(CNc3cccc4c3C(=O)N(C3CCC(=O)NC3=O)C4=O)cn2)CC1` (stereo not shown) [Compound 41, 2-(2,6-dioxopiperidin-3-yl)-4-(((1-(1-(2-isopropoxyacetyl)piperidin-4-yl)-1H-pyrazol-4-yl)methyl)amino)-isoindoline-1,3-dione], the GI50 was < 0.1 µM. With `O=C1CCC(N2C(=O)c3cccc(NCc4cnn(C5CCN(C(=O)CC6CCN(C(=O)c7ccccc7)CC6)CC5)c4)c3C2=O)C(=O)N1` (stereo not shown) [Compound 123, 4-(((1-(1-(2-(1-benzoylpiperidin-4-yl)acetyl)piperidin-4-yl)-1H-pyrazol-4-yl)methyl)amino)-2-(2,6-dioxopiperidin-3-yl)isoindoline-1,3-dione], the GI50 was < 0.1 µM.

(Values after patent publication US11753397B2, “Cereblon binders for the degradation of ikaros” (C4 Therapeutics, Inc., priority 2018, dated 2023).)
